In patent US12668599B2, “Heterobifunctional compounds and methods of treating disease” (Halda Therapeutics OpCo, Inc., priority 2023, dated 2026):
Where two headings read alike, the source gives them in different places.

Columns and labels:
[1] = system: T-Rex 293 cell line SC3 cells having increased expression of androgen receptor protein due to exposure to doxycycline; test: Cellular growth inhibition, T-Rex 293 SC3 cells with doxycycline-induced androgen receptor (CellTiter-Glo 2.0, 72 hours); assay type: cell-based; details: for Ratio of GI50's: GI50 of the top compound in the pair divided by GI50 of the lower compound, T-Rex 293 SC3 cells with doxycycline-induced androgen receptor; for GI50: T-Rex 293 SC3 cells with 10 ng/ml doxycycline (increased androgen receptor expression), 72 hours, CellTiter-Glo 2.0
VCaP cells = test: Cellular growth inhibition assay for VCaP cells (CellTiter-Glo 2.0, 72 hours); assay type: cell-based, human; details: for Ratio of GI50's: GI50 of the top compound in the pair divided by GI50 of the lower compound; for GI50: CellTiter-Glo 2.0
[2] = biological target: T1, androgen receptor and BRD4 protein (Homo sapiens, UniProt O60885+P10275); test: Tumor TR-FRET trimer assay on tumors of the PK/PD Castrate VCaP model; assay type: in vivo, CB17.SCID mice; details: PK/PD Castrate VCaP Tumor Xenograft Model; Compound II-5 and Compound B at the same dose and dosing frequency, FIG. 20
T1 construct: Tumors obtained from the Castrate VCaP Model were lysed; from tissue; host or cells: VCaP tumour xenografts grown in castrated CB17.SCID mice
T1 sequence (P10275 whole entry, other chains not shown): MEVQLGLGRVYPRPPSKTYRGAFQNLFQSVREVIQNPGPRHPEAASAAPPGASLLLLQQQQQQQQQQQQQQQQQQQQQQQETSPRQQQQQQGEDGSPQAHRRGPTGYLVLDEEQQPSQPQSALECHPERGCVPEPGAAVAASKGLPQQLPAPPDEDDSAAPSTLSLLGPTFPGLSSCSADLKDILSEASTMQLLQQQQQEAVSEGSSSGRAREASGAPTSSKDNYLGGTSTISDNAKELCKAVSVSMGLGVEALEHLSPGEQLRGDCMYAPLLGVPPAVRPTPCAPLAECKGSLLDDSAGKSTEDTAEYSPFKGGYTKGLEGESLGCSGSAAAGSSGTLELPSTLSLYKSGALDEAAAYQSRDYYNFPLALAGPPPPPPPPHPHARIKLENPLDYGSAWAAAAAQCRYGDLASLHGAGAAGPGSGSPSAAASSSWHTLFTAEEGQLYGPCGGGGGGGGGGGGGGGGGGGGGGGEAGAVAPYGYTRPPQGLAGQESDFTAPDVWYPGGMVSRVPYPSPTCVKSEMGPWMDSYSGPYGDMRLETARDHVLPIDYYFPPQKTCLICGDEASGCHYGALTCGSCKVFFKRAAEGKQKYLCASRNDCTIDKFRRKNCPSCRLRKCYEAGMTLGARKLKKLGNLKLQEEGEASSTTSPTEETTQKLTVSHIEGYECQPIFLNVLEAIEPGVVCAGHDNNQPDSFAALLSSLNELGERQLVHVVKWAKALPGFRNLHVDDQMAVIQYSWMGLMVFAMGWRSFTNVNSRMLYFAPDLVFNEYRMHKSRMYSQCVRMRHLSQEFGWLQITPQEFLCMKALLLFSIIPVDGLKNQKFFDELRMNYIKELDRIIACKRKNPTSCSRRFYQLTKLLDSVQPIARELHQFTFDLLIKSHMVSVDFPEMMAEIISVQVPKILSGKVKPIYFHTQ
Description: 5M VCaP cells were subcutaneously implanted into CB17.SCID mice in 50% Matrigel (Corning). Mice were castrated under anesthesia once tumor volumes reached 100 mm^3. Tumors were then allowed to reach an average of approximately 150 mm^3 before randomization into efficacy arms. Tumors were measured twice weekly for Tumor Growth Inhibition (TGI) calculation. For PK/PD analysis, tumors were allowed to reach an average of 400 mm^3, before dosing the mice with test compound by oral gavage (n=5) for seven days. Mice were sacrificed 24 hours following the final dose, and tumors were harvested for downstream analysis. Plasma samples were collected from all dosed mice 2 hours following the final dose to determine test compound exposure by LC-MS/MS. […] the United States Food and Drug Administration for treatment of prostate cancer ([…]).
Tumors obtained from the Castrate VCaP Model were lysed in Cell Signaling Technology lysis buffer supplemented with protease/phosphatase inhibitors and nuclease. Each tumor was lysed in 10 μL of lysis buffer per mg of tumor and placed in a TissueLyser for 4 minutes at 20 Hz. Each sample was spun down at 16000×g for 10 minutes, the supernatant was removed, and a BCA assay was run to quantify the total protein concentration in each sample. In a white opaque 384 well plate each sample was diluted in supplemented CST lysis buffer to 48 and 24 μg of protein in a total volume of 16 μL. 4 μL of a 1:1 mixture of anti-androgen receptor and anti-BRD4 antibodies with donor and acceptor fluorophores were mixed into each well containing tumor samples. The plate was spun down at 300×g for one minute, placed on a plate shaker at 400 RPM for 10 minutes, spun down at 300×g for one minute, then sealed with a plate seal and stored overnight. Approximately 16 hours after adding antibodies, the plate was read on an Envision plate reader. The ratiometric value of each well was calculated by dividing the acceptor signal by the donor signal and multiplying by 10,000.

[3] = Stability to storage of crystal form under relative humidity; assay type: physicochemical; details: 23-25° C., 23% RH to 53% RH, one week
[4] = Stability analysis of Crystal Form A and Crystal Form B in solvent suspensions (XRPD); assay type: physicochemical; details: suspensions in EtOH, Acetone, Acetonitrile, THF/Heptane at 25° C. and 50° C. for 1 week
Description: The obtained suspensions were stirred at 25° C. and 50° C. for 1 week, respectively. Solid parts (wet cakes) were isolated by centrifugation filtration at […] temperature and investigated by XRPD.

[5] = system: T-Rex 293 cell line SC3 cells lacking increased expression of androgen receptor protein; test: Cellular growth inhibition, T-Rex 293 SC3 cells without doxycycline (CellTiter-Glo 2.0, 72 hours); assay type: cell-based; details: T-Rex 293 SC3 cells not exposed to doxycycline (no increased androgen receptor expression)
T47D cells = test: Cellular growth inhibition assay for T47D cells (CellTiter-Glo 2.0, 72 hours); assay type: cell-based, human
Description: Exemplary compounds were tested for ability to inhibit the proliferation of T47D cells. T47D cells are a commercially available human breast cancer cell line.
T47D cells were purchased from American Type Cell Culture (ATCC Cat #HTB-133) and then seeded on poly-D-lysine coated, black clear-bottom 384-well plates at 3000/well in 25 μL Dulbecco's Modified Eagle Medium (DMEM) supplemented with 10% w/w Fetal bovine serum (FBS), 0.2 units/mL recombinant human insulin (Gibco Cat #12585014), and 1% w/w Pen-Strep. Pen-Strep is a commercially available mixture of penicillin G and streptomycin, which is used in mammalian cell culture media to prevent bacterial contamination. Dulbecco's Modified Eagle Medium (DMEM) supplemented with 10% w/w fetal bovine serum (FBS), 0.2 units/mL recombinant human insulin, and 1% w/w Pen-Strep is herein referred to as Treatment Medium. Following seeding of cells in the plates, the plates were spun at 300×g for 30 seconds, then equilibrated to room temperature for 30 minutes, and then deposited in a humidified tissue culture incubator maintained at 37° C. with 5% CO2.
At 24 hours after seeding of the cells, dilutions of test compound were prepared in DMSO and dissolved in Treatment Medium, to achieve a final DMSO concentration of 0.5% w/w, thereby providing the Test Compound Solution. A 25 μL aliquot of the Test Compound Solution was added to cells in the well plates. An equal volume of a solution containing DMSO and Treatment Medium was used as a negative control. Following treatment of cells with Test Compound Solution or said equal volume of a solution containing DMSO and Treatment Medium, the plates were spun at 300×g for 30 seconds, and then left in an incubator for 72 hours.
At the end of the treatment duration, cell viability was quantified with CellTiter-Glo 2.0 reagent (Promega Cat #G9243). For this purpose, plates were equilibrated to room temperature for 30 minutes, and then 25 μL of CellTiter-Glo 2.0 reagent was added to cells in the plate wells. Plates were then agitated on a shaker for two minutes at 500 rpm and subsequently incubated at room temperature for 10 minutes. Following incubation, the plates were spun at 3000×g for 30 seconds, then sealed with an optical adhesive cover, and luminescence readings were measured with an En Vision Plate Reader (Perkin Elmer).
Data was normalized using zero luminescence for baseline. A four-parameter non-linear regression curve fit was applied to dose-response data in GraphPad Prism data analysis software to determine the half-maximal growth inhibitory concentration (GI50) for each test compound.

Row | SMILES | Ratio of GI50's (VCaP cells) | GI50 (VCaP cells; Homo sapiens, VCaP, 72 h) | GI50 (T47D cells; Homo sapiens, T47D, 72 h) | Ratio of GI50's [1] | relative stability of crystal forms [4] | GI50 [1] | GI50 ([5]; 72 h) | also measured
1 | Cc1sc2c(c1C)C(c1ccc(OC3CC4(CCN(c5ncc(C(=O)N[C@H]6C(C)(C)[C@H](Oc7ccc(C#N)c(Cl)c7)C6(C)C)cn5)CC4)C3)cc1)=N[C@@H](Cc1ncco1)c1nnc(C)n1-2 [B, reference compound] | 1.3 |  |  | 5.3 |  |  |  | ternary complex formation between compound, androgen receptor, and BRD4 protein in tumors [2]: observed
2 | COc1cc(O[C@H]2C(C)(C)[C@H](NC(=O)c3cnc(N4CCC5(CC4)CC(Oc4ccc(C6=N[C@@H](Cc7ncco7)c7nnc(C)n7-c7sc(C)c(C)c76)cc4)C5)nc3)C2(C)C)ccc1C#N [Compound II-5 in Crystal Form A, N-[(1r,3r)-3-(4-cyano-3-methoxy-phenoxy)-2,2,4,4-tetramethyl-cyclobutyl]-2-[2-[4-[(9S)-4,5,13-trimethyl-9-(oxazol-2-ylmethyl)-3-thia-1,8,11,12-tetrazatricyclo[8.3.0.0^2,6]trideca-2 (6),4,7,10,12-pentaen-7-yl]phenoxy]-7-azaspiro[3.5]nonan-7-yl]pyrimidine-5-carboxamide Crystal Form A] |  |  |  |  | superior stability |  |  | physical stability of crystalline form on storage [3]: no change in crystalline form was observed
3 | COc1cc(O[C@H]2C(C)(C)[C@H](NC(=O)c3cnc(N4CCC5(CC4)CC(Oc4ccc(C6=N[C@@H](Cc7ncco7)c7nnc(C)n7-c7sc(C)c(C)c76)cc4)C5)nc3)C2(C)C)ccc1C#N [Compound II-5 in Crystal Form B, N-[(1r,3r)-3-(4-cyano-3-methoxy-phenoxy)-2,2,4,4-tetramethyl-cyclobutyl]-2-[2-[4-[(9S)-4,5,13-trimethyl-9-(oxazol-2-ylmethyl)-3-thia-1,8,11,12-tetrazatricyclo[8.3.0.0^2,6]trideca-2 (6),4,7,10,12-pentaen-7-yl]phenoxy]-7-azaspiro[3.5]nonan-7-yl]pyrimidine-5-carboxamide Crystal Form B] |  |  |  |  | converted to Compound II-5 in Crystal Form A |  |  | 

The next lines start with results.

Row | Ratio of GI50's (VCaP cells) | GI50 (VCaP cells; Homo sapiens, VCaP, 72 h) | GI50 (T47D cells; Homo sapiens, T47D, 72 h) | SMILES | Ratio of GI50's [1] | relative stability of crystal forms [4] | GI50 [1] | GI50 ([5]; 72 h) | also measured
4 | 1 | < 500 nM | < 500 nM | COc1cc(O[C@H]2C(C)(C)[C@H](NC(=O)c3cnc(N4CCC5(CC4)CC(Cc4ccc(C6=N[C@@H](Cc7ncco7)c7nnc(C)n7-c7sc(C)c(C)c76)cc4)C5)nc3)C2(C)C)ccc1C#N [II-10, N-[3-(4-cyano-3-methoxy-phenoxy)-2,2,4,4-tetramethyl-cyclobutyl]-2-[2-[[4-[(9S)-4,5,13-trimethyl-9-(oxazol-2-ylmethyl)-3-thia-1,8,11,12-tetrazatricyclo[8.3.0.0^2,6]trideca-2 (6),4,7,10,12-pentaen-7-yl]phenyl]methyl]-7-azaspiro[3.5]nonan-7-yl]pyrimidine-5-carboxamide] | 1 |  | < 500 nM | 500 to 1500 nM | 
5 |  | < 500 nM | < 500 nM | COc1cc(O[C@H]2C(C)(C)[C@H](NC(=O)c3cnc(N4CCC5(CCC(c6ccc(C7=N[C@@H](Cc8ncco8)c8nnc(C)n8-c8sc(C)c(C)c87)cc6)CC5)C4)nc3)C2(C)C)ccc1C#N [II-11, N-[(1r,3r)-3-(4-cyano-3-methoxy-phenoxy)-2,2,4,4-tetramethyl-cyclobutyl]-2-[8-[4-[(9S)-4,5,13-trimethyl-9-(oxazol-2-ylmethyl)-3-thia-1,8,11,12-tetrazatricyclo[8.3.0.0^2,6]trideca-2 (6),4,7,10,12-pentaen-7-yl]phenyl]-2-azaspiro[4.5]decan-2-yl]pyrimidine-5-carboxamide] |  |  | < 500 nM | < 500 nM | 
6 | 1 |  |  | COc1cc(O[C@H]2C(C)(C)[C@H](NC(=O)c3cnc(N4CCC5(CCC(c6ccc(C7=N[C@@H](Cc8ncco8)c8nnc(C)n8-c8sc(C)c(C)c87)cc6)CC5)C4)nc3)C2(C)C)ccc1C#N [II-12] | 1 |  | < 500 nM |  | GI50 [5]: < 500 nM; GI50 (VCaP cells; 72 hours): < 500 nM; GI50 (T47D cells): < 500 nM
